From patent US20240226158A9, “ADMINISTRATION OF TUMOR INFILTRATING LYMPHOCYTES WITH MEMBRANE BOUND INTERLEUKIN 15 TO TREAT CANCER” (OBSIDIAN THERAPEUTICS, INC., priority 2021, published 2024)

Tested on: IL15 signaling pathway (pSTAT5, pS6)
Assay: phospho-flow cytometry assay of IL15 expression and signaling
Type: cell-based, human
Settings: regulated mbIL15 TILs, 18 hours, 4 donors
Description: Pre-REP TILs were prepared similarly to the methods of Example 1-3 and 9, and unengineered and mbIL15 TIL generated accordingly as described in Examples 1-3 and 9. Engagement of the IL15 signaling pathway results in phosphorylation of signal transducers downstream, including the transcription factor protein STATS and ribosomal protein S6. […] Next, the regulated mbIL15 TILs were regulated for 18 hours in the presence of a range of concentrations of ACZ including 0.1, 1, 2.5, 5, 10, 25, 100 μM, as well as vehicle control. The regulated mbIL15 TILs were then collected for staining and FACS analysis.
Briefly, cells were stained using antibodies for CD3, CD4, CD8, IL15 and a Live/Dead marker. Then cells were fixed in 2% formaldehyde (BD Cytofix) and permeabilized using a methanol-based buffer (BD Phospho Perm III Buffer) before staining with antibodies specific for phosphorylated STATS (Biolegend) and S6 (Cell Signaling Technology). Cells were acquired on the BD Symphony and analyzed using FlowJo software.
In order to compare different strategies for IL15 expression, TILs were utilized that constitutively express mbIL15 and regulated mbIL15 TILs. Cryopreserved unengineered TILs, constitutive mbIL15 TILs, and regulated mbIL15 TILs, from three human donors were thawed and then rested in ACZ-free media for 24 hours. […] Cells were acquired on the BD Fortessa and analyzed using FlowJo software.

## CC(=O)Nc1nnc(S(N)(=O)=O)s1 [ACZ, acetazolamide]
  relationship between ACZ and IL15 expression and signaling (pSTAT5, pS6): dose-dependent relationship
